Source: patent US6350585B1, “Reagent for assay of amylase isozyme activity” (priority 1998, dated 2002)

Experiments:
P-type amylase = target: T1, P-type amylase (Homo sapiens, UniProt P04746); test: P-type amylase activity assay of serum with reagent E; type: biochemical; settings: for P-type amylase activity value: potassium thiocyanate 140 mM
T1 construct: Serum (1, 2 or 3); from tissue; host or cells: serum
T1 sequence (P04746 16-511): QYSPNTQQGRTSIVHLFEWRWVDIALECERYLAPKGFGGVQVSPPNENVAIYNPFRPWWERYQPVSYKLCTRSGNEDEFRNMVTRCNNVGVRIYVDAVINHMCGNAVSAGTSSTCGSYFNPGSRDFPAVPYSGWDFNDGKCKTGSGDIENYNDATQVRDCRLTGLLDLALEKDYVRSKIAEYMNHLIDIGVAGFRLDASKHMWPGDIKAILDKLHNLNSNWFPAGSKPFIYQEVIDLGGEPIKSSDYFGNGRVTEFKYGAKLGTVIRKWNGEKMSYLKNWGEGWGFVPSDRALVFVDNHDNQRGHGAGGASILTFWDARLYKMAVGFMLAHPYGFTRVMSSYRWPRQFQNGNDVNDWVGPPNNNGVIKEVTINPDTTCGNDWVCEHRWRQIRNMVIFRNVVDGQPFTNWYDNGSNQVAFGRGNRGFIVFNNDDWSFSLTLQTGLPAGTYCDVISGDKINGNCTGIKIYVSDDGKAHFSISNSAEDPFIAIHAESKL
Procedure: Good buffer (pH 6.2) 50 mM
S-type amylase inhibitory antibody 88E8 (manufactured by Roche Diagnostics K.K.) 15 mg/L
S-type amylase inhibitory antibody 66C7 (manufactured by Roche Diagnostics K.K.) 1.25 mg/L
Potassium thiocyanate 140 mM
(§1) Substrate (GalG2CNP (Example) or G3CNP (Comparative Example)) 2.6 mM
(1) Distilled water (blank)
Each of the above-mentioned reagents (0.05 mL) was added to the above reagent E (3 mL) and the mixtures were left standing at 37° C. for 3 minutes. Then, change in absorbance at 405 nm was assayed and change in absorbance per minute was calculated. The obtained change in absorbance was converted to P-type amylase activity value at this composition using the molecular extinction coefficient of CNP.

[1] = target: T2, P-type amylase (Calibzyme P) (Homo sapiens, UniProt P04746); test: amylase isozyme activity assay with potassium thiocyanate as activator, P-type amylase sample; type: biochemical; settings: for Change in absorbance, Containing Antibody (Composition A) / Change in absorbance, Without antibody (Composition B) / Relative sensitivity / Percent residual enzyme activity: P-type amylase; for Relative sensitivity: G3CNP at 900 mM = 100; for Percent residual enzyme activity: composition A/B
T2 construct: purchased International Reagents Corporation Calibzyme P
T2 sequence (P04746 16-511): T1 sequence (P04746 16-511)
Procedure: A reagent for amylase isozyme activity assay comprising each composition as mentioned below was prepared. In the Table showing the composition, GalG2CNP (Example) is 2-chloro-4-nitrophenyl 4-O-β-D-galactopyranosylmaltoside, and G3CNP (Comparative Example) is 2-chloro-4-nitrophenylmaltotrioside.
S-type amylase-inhibiting antibody 88E8 (manufactured by Roche Diagnostics K.K.) 20 mg/L
S-type amylase-inhibiting antibody 66C7 (manufactured by Roche Diagnostics K.K.) 5 mg/L
as §1
(2) P-type Amylase (Calibzyme P, Manufactured by International Reagents Corporation)
Each sample (0.05 mL was added to the reagent A (3 mL) and the reagent B (3 mL), respectively, and the mixtures were allowed to stand at 37° C. for 3 minutes. Then, the change in absorbance at 405 nm was assayed, and the change in absorbance per minute was calculated. The results are shown in Tables 1 and 2.
In the Tables, P is the case where P-type amylase was used as the sample, and S is the case where S-type amylase was used.
Percent residual enzyme activity (%)=(change in absorbance of composition A)/(change in absorbance of composition B)×100
Relative sensitivity (%)=(change in absorbance of composition B)/(change in absorbance of Comparative Example wherein potassium thiocyanate was 900 mM)×100

**Q.** With `O=[N+]([O-])c1ccc(O[C@H]2O[C@H](CO)[C@@H](O[C@H]3O[C@H](CO)[C@@H](O[C@@H]4O[C@H](CO)[C@H](O)[C@H](O)[C@H]4O)[C@H](O)[C@H]3O)[C@H](O)[C@H]2O)c(Cl)c1` [GalG2CNP, 2-chloro-4-nitrophenyl 4-O-β-D-galactopyranosylmaltoside] as the compound, how does the “P-type amylase activity value” (P-type amylase; Serum 1, composition E) read?
**A.** 32.3 IU/L

**Q.** And the “P-type amylase activity value” (P-type amylase; Serum 2, composition E)?
**A.** 205.0 IU/L

**Q.** And the “P-type amylase activity value” (P-type amylase; Serum 3, composition E)?
**A.** 156.8 IU/L

**Q.** What about the “sensitivity (change in absorbance) compared with Comparative Example” value (P-type amylase; Table 5, serum samples) of the same compound?
**A.** superior sensitivity

**Q.** What about the “Blank, change in absorbance per minute” value (P-type amylase; distilled water as sample, composition E) of the same compound?
**A.** 0.0004 ABS/min

**Q.** And the “Change in absorbance, Containing Antibody (Composition A)” value (“Change in absorbance … (Composition A)” for short) ([1]; potassium thiocyanate 0 mM)?
**A.** 26.2 mABS/min

**Q.** And the “Change in absorbance, Without antibody (Composition B)” value ([1]; potassium thiocyanate 0 mM)?
**A.** 26.7 mABS/min

**Q.** And the Relative sensitivity ([1]; potassium thiocyanate 0 mM)?
**A.** 55.7%

**Q.** What about the “Percent residual enzyme activity” value ([1]; potassium thiocyanate 0 mM) of the same compound?
**A.** 98.1%

**Q.** What about the “Change in absorbance … (Composition A)” value ([1]; potassium thiocyanate 50 mM) of the same compound?
**A.** 40.6 mABS/min

**Q.** What about the “Change in absorbance, Without antibody (Composition B)” value ([1]; potassium thiocyanate 50 mM) of the same compound?
**A.** 42.1 mABS/min

**Q.** What about the Relative sensitivity ([1]; potassium thiocyanate 50 mM) of the same compound?
**A.** 87.9%

**Q.** And the “Percent residual enzyme activity” value ([1]; potassium thiocyanate 50 mM)?
**A.** 96.4%

**Q.** What about the “Change in absorbance … (Composition A)” value ([1]; potassium thiocyanate 100 mM) of the same compound?
**A.** 49.3 mABS/min

**Q.** And the “Change in absorbance, Without antibody (Composition B)” value ([1]; potassium thiocyanate 100 mM)?
**A.** 51.1 mABS/min

**Q.** And the Relative sensitivity ([1]; potassium thiocyanate 100 mM)?
**A.** 106.7%

**Q.** What about the “Percent residual enzyme activity” value ([1]; potassium thiocyanate 100 mM) of the same compound?
**A.** 96.5%

**Q.** What about the “Change in absorbance … (Composition A)” value ([1]; potassium thiocyanate 140 mM) of the same compound?
**A.** 52.4 mABS/min

**Q.** What about the “Change in absorbance, Without antibody (Composition B)” value ([1]; potassium thiocyanate 140 mM) of the same compound?
**A.** 56.0 mABS/min

**Q.** What about the Relative sensitivity ([1]; potassium thiocyanate 140 mM) of the same compound?
**A.** 116.9%

**Q.** And the “Percent residual enzyme activity” value ([1]; potassium thiocyanate 140 mM)?
**A.** 93.6%

**Q.** What about the “Change in absorbance … (Composition A)” value ([1]; potassium thiocyanate 200 mM) of the same compound?
**A.** 59.5 mABS/min

**Q.** What about the “Change in absorbance, Without antibody (Composition B)” value ([1]; potassium thiocyanate 200 mM) of the same compound?
**A.** 61.9 mABS/min

**Q.** And the Relative sensitivity ([1]; potassium thiocyanate 200 mM)?
**A.** 129.2%

**Q.** And the “Percent residual enzyme activity” value ([1]; potassium thiocyanate 200 mM)?
**A.** 96.1%

**Q.** What about the “Change in absorbance … (Composition A)” value ([1]; potassium thiocyanate 300 mM) of the same compound?
**A.** 66.6 mABS/min

**Q.** And the “Change in absorbance, Without antibody (Composition B)” value ([1]; potassium thiocyanate 300 mM)?
**A.** 69.1 mABS/min

**Q.** What about the Relative sensitivity ([1]; potassium thiocyanate 300 mM) of the same compound?
**A.** 144.3%

**Q.** What about the “Percent residual enzyme activity” value ([1]; potassium thiocyanate 300 mM) of the same compound?
**A.** 96.4%

**Q.** What about the “Change in absorbance … (Composition A)” value ([1]; potassium thiocyanate 400 mM) of the same compound?
**A.** 70.3 mABS/min

**Q.** And the “Change in absorbance, Without antibody (Composition B)” value ([1]; potassium thiocyanate 400 mM)?
**A.** 71.7 mABS/min

**Q.** And the Relative sensitivity ([1]; potassium thiocyanate 400 mM)?
**A.** 149.7%

**Q.** And the “Percent residual enzyme activity” value ([1]; potassium thiocyanate 400 mM)?
**A.** 98.0%

**Q.** And the “Change in absorbance … (Composition A)” value ([1]; potassium thiocyanate 500 mM)?
**A.** 71.3 mABS/min

**Q.** And the “Change in absorbance, Without antibody (Composition B)” value ([1]; potassium thiocyanate 500 mM)?
**A.** 70.9 mABS/min

**Q.** What about the Relative sensitivity ([1]; potassium thiocyanate 500 mM) of the same compound?
**A.** 148.0%

**Q.** What about the “Percent residual enzyme activity” value ([1]; potassium thiocyanate 500 mM) of the same compound?
**A.** 100.6%

**Q.** What about the “Change in absorbance … (Composition A)” value ([1]; potassium thiocyanate 600 mM) of the same compound?
**A.** 70.4 mABS/min

**Q.** What about the “Change in absorbance, Without antibody (Composition B)” value ([1]; potassium thiocyanate 600 mM) of the same compound?
**A.** 68.0 mABS/min

**Q.** What about the Relative sensitivity ([1]; potassium thiocyanate 600 mM) of the same compound?
**A.** 142.0%

**Q.** What about the “Percent residual enzyme activity” value ([1]; potassium thiocyanate 600 mM) of the same compound?
**A.** 103.5%

**Q.** What about the “Change in absorbance … (Composition A)” value ([1]; potassium thiocyanate 700 mM) of the same compound?
**A.** 67.9 mABS/min

**Q.** And the “Change in absorbance, Without antibody (Composition B)” value ([1]; potassium thiocyanate 700 mM)?
**A.** 67.2 mABS/min

**Q.** And the Relative sensitivity ([1]; potassium thiocyanate 700 mM)?
**A.** 140.3%

**Q.** And the “Percent residual enzyme activity” value ([1]; potassium thiocyanate 700 mM)?
**A.** 101.0%

**Q.** What about the “Change in absorbance … (Composition A)” value ([1]; potassium thiocyanate 800 mM) of the same compound?
**A.** 63.7 mABS/min

**Q.** And the “Change in absorbance, Without antibody (Composition B)” value ([1]; potassium thiocyanate 800 mM)?
**A.** 62.6 mABS/min

**Q.** And the Relative sensitivity ([1]; potassium thiocyanate 800 mM)?
**A.** 130.7%

**Q.** What about the “Percent residual enzyme activity” value ([1]; potassium thiocyanate 800 mM) of the same compound?
**A.** 101.8%

**Q.** What about the “Change in absorbance … (Composition A)” value ([1]; potassium thiocyanate 900 mM) of the same compound?
**A.** 61.6 mABS/min

**Q.** What about the “Change in absorbance, Without antibody (Composition B)” value ([1]; potassium thiocyanate 900 mM) of the same compound?
**A.** 60.1 mABS/min

**Q.** What about the Relative sensitivity ([1]; potassium thiocyanate 900 mM) of the same compound?
**A.** 125.5%

**Q.** And the “Percent residual enzyme activity” value ([1]; potassium thiocyanate 900 mM)?
**A.** 102.5%

**Q.** What about the “relative sensitivity of P-type amylase as multiple of the standard sensitivity” value ([1]; potassium thiocyanate 200 mM, standard = G3CNP at 900 mM) of the same compound?
**A.** about 1.3
